# Source: US20170334899A1, “AMINO-SUBSTITUTED ISOTHIAZOLES” (Bayer Pharma Aktiengesellschaft, priority 2014, published 2017)
# pIC50: −log10 of the molar value. Several values for one entry are separate records, joined by “and”; a condition that tells them apart may be missing. Equal entries are not always repeated.
# Molecular target: T1, human kinase Mps-1 (Homo sapiens, UniProt P33981)
# T1 construct: N-terminally GST-tagged human full length recombinant Mps-1 kinase; GST (N); purchased Invitrogen, Karslruhe, Germany PV4071
# T1 sequence (P33981 1-857): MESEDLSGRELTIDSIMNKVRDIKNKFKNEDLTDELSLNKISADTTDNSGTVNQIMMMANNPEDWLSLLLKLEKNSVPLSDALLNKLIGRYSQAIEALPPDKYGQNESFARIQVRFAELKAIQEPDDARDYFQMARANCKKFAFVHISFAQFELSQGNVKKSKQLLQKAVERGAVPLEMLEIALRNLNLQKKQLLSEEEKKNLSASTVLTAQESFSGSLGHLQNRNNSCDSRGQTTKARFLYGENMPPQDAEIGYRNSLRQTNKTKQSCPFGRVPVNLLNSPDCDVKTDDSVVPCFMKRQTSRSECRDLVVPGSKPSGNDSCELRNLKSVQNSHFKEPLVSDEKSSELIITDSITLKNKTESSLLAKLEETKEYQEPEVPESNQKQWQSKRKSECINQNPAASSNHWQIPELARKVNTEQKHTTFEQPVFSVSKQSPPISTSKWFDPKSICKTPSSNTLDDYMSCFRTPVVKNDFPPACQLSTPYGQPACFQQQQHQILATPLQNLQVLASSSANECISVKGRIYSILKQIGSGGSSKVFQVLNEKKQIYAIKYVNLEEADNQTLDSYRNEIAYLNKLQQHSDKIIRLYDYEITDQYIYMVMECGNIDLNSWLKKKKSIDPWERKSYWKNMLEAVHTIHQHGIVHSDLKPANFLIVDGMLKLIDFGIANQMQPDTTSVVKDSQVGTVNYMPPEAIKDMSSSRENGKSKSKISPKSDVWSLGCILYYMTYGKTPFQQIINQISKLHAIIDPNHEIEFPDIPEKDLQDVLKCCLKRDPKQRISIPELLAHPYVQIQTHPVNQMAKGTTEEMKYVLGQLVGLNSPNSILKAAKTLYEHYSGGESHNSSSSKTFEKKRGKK
# Test: Mps-1 kinase assay (TR-FRET)
# Format: biochemical
# Details: Mps-1 TR-FRET kinase assay; avg; read-out: Mps1 avg (IC50 [mol/l])
# Procedure, shortened: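 GST-tagged full-length recombinant human Mps-1 (~0.5 nM) pre-incubated 15 min with compound, then reacted 60 min at 22 °C with 10 μM ATP and 1 μM biotinylated peptide in Hepes pH 7.7 buffer. EDTA-stopped; TR-FRET (Eu anti-phospho-Ser/Thr to SA-XLent) 665/620 nm ratio normalised to no-inhibitor and no-enzyme controls.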
row,Compound,pIC50
1,"Cc1nsc(Nc2ccc(C#N)cn2)c1C(=O)Nc1cccc(NC(=O)OC(C)(C)C)c1 [Example 179, tert-butyl {3-[({5-[(5-cyanopyridin-2-yl)amino]-3-methyl-1,2-thiazol-4-yl}carbonyl)amino]phenyl}carbamate]",< 4.70
2,"Cc1nsc(Nc2cncc(C(F)(F)F)n2)c1C(=O)Nc1ccc(OC2CCCN(C(=O)OC(C)(C)C)C2)nc1 (centres unmarked) [Example 189, tert-butyl 3-[(5-{[(3-methyl-5-{[6-(trifluoromethyl)pyrazin-2-yl]amino}-1,2-thiazol-4-yl)carbonyl]amino}pyridin-2-yl)oxy]piperidine-1-carboxylate]",< 4.70
3,"Cc1nsc(Nc2cncc(C(F)(F)F)n2)c1C(=O)Nc1ccc(OCCN)nc1 [Example 196, N-[6-(2-aminoethoxy)pyridin-3-yl]-3-methyl-5-{[6-(trifluoromethyl)pyrazin-2-yl]amino}-1,2-thiazole-4-carboxamide]",< 4.70
4,"Cc1nsc(Nc2cnc3ccccc3n2)c1C(=O)Nc1ccc(C(=O)O)cc1 [Example 187, 4-({[3-methyl-5-(quinoxalin-2-ylamino)-1,2-thiazol-4-yl]carbonyl}amino)benzoic acid]",5.27
5,"CC(=O)N1CCC(Oc2ccc(NC(=O)c3c(C)nsc3Nc3cncc(C(F)(F)F)n3)cn2)CC1 [Example 17, N-{6-[(1-Acetylpiperidin-4-yl)oxy]pyridin-3-yl}-3-methyl-5-{[6-(trifluoromethyl)-pyrazin-2-yl]amino}-1,2-thiazole-4-carboxamide]",4.74
6,"Cc1nsc(Nc2cc(C#N)ccn2)c1C(=O)Nc1cccc(NC(=O)C(C)(C)C)c1 [Example 183, 5-[(4-cyanopyridin-2-yl)amino]-N-{3-[(2,2-dimethylpropanoyl)amino]phenyl}-3-methyl-1,2-thiazole-4-carboxamide]",< 4.70
7,"Cc1nsc(Nc2cnccn2)c1C(=O)Nc1ccc(C(=O)OC(C)(C)C)cc1 [Example 184, tert-butyl 4-({[3-methyl-5-(pyrazin-2-ylamino)-1,2-thiazol-4-yl]carbonyl}amino)benzoate]",< 4.70
8,"Cc1nsc(Nc2cnc3ccccc3n2)c1C(=O)Nc1ccc(OC2CCN(CC(F)F)CC2)nc1 [Example 20, N-(6-{[1-(2,2-difluoroethyl)piperidin-4-yl]oxy}pyridin-3-yl)-3-methyl-5-(quinoxalin-2-ylamino)-1,2-thiazole-4-carboxamide]",≤ 4.70
9,"Cc1nsc(Nc2cncc(C(F)(F)F)n2)c1C(=O)Nc1ccc(OC2CCN(CCF)CC2)nc1 [Example 14, N-(6-{[1-(2-Fluoroethyl)piperidin-4-yl]oxy}pyridin-3-yl)-3-methyl-5-{[6-(trifluoro-methyl)pyrazin-2-yl]amino}-1,2-thiazole-4-carboxamide]",≤ 4.70
10,"Cc1nsc(Nc2cncc(C(F)(F)F)n2)c1C(=O)Nc1ccc(C(=O)OC(C)(C)C)cc1 [Example 193, tert-butyl tert-butyl 4-{[(3-methyl-5-{[6-(trifluoromethyl)pyrazin-2-yl]amino}-1,2-thiazol-4-yl)carbonyl]amino}benzoate]",< 4.70
11,"Cc1nsc(Nc2cnc(C(F)(F)F)cn2)c1C(=O)Nc1ccc(OCCN)nc1 [Example 197, N-[6-(2-aminoethoxy)pyridin-3-yl]-3-methyl-5-{[5-(trifluoromethyl)pyrazin-2-yl]amino}-1,2-thiazole-4-carboxamide]",< 4.70
12,"Cc1nsc(Nc2cncc(C(F)(F)F)n2)c1C(=O)Nc1cccc(S(C)(=O)=O)c1 [Example 194, 3-methyl-N-[3-(methylsulfonyl)phenyl]-5-{[6-(trifluoromethyl)pyrazin-2-yl]amino}-1,2-thiazole-4-carboxamide]",< 5.00
13,"Cc1nsc(Nc2cnc3ccccc3n2)c1C(=O)Nc1ccccc1S(C)(=O)=O [Example 188, 3-methyl-N-[2-(methylsulfonyl)phenyl]-5-(quinoxalin-2-ylamino)-1,2-thiazole-4-carboxamide]",< 4.70

# The next lines start with the values.
row,pIC50,Compound
1,< 4.70,"Cc1nsc(Nc2cnc3ccccc3n2)c1C(=O)Nc1ccc(C(N)=O)c(F)c1 [Example 201, N-(4-carbamoyl-3-fluorophenyl)-3-methyl-5-(quinoxalin-2-ylamino)-1,2-thiazole-4-carboxamide]"
2,< 4.70,"Cc1nsc(Nc2ccc(C#N)cn2)c1C(=O)Nc1ccc(OCCC(=O)OC(C)(C)C)nc1 [Example 199, tert-butyl 3-({5-[({5-[(5-cyanopyridin-2-yl)amino]-3-methyl-1,2-thiazol-4-yl}carbonyl)amino]pyridin-2-yl}oxy)propanoate]"
3,< 4.70,"Cc1nsc(Nc2cnc(C(F)(F)F)cn2)c1C(=O)Nc1ccc(OCCN)c(F)c1 [Example 221, 3-N-[4-(2-aminoethoxy)-3-fluorophenyl]-3-methyl-5-{[5-(trifluoromethyl)pyrazin-2-yl]amino}-1,2-thiazole-4-carboxamide]"
4,< 4.70,"CC(=O)Nc1cc(NC(=O)c2c(C)nsc2Nc2cnccn2)ccc1F [Example 205, N-(3-acetamido-4-fluorophenyl)-3-methyl-5-(pyrazin-2-ylamino)-1,2-thiazole-4-carboxamide]"
5,< 4.70,"Cc1nsc(Nc2ccc(C#N)cn2)c1C(=O)Nc1ccc(S(C)(=O)=O)cc1 [Example 246, 5-[(5-cyanopyridin-2-yl)amino]-3-methyl-N-[4-(methylsulfonyl)phenyl]-1,2-thiazole-4-carboxamide]"
6,< 4.70,"Cc1nsc(Nc2cc(C#N)ccn2)c1C(=O)Nc1ccc(NC2CCCNC2)nc1 (centres unmarked) [Example 242, 5-[(4-cyanopyridin-2-yl)amino]-3-methyl-N-[6-(piperidin-3-ylamino)pyridin-3-yl]-1,2-thiazole-4-carboxamide]"
7,< 4.70,"CNS(=O)(=O)c1ccc(NC(=O)c2c(C)nsc2Nc2cc(C#N)ccn2)cc1 [Example 210, 5-[(4-cyanopyridin-2-yl)amino]-3-methyl-N-[4-(methylsulfamoyl)phenyl]-1,2-thiazole-4-carboxamide]"
8,4.77,"Cc1nsc(Nc2cncc(C(F)(F)F)n2)c1C(=O)Nc1ccc(F)c(C(N)=O)c1 [Example 204, N-(3-carbamoyl-4-fluorophenyl)-3-methyl-5-{[6-(trifluoromethyl)pyrazin-2-yl]amino}-1,2-thiazole-4-carboxamide]"
9,< 4.70,"Cc1nsc(Nc2cnc(C(F)(F)F)cn2)c1C(=O)Nc1ccc(C(=O)NCCN2CCCC(F)C2)cc1 (centres unmarked) [Example 213, N-(4-{[2-(3-fluoropiperidin-1-yl)ethyl]carbamoyl}phenyl)-3-methyl-5-{[5-(trifluoromethyl)pyrazin-2-yl]amino}-1,2-thiazole-4-carboxamide]"
10,< 4.70,"Cc1cc(C)n(-c2ccccc2NC(=O)c2c(C)nsc2Nc2cnc3ccccc3n2)n1 [Example 243, N-[2-(3,5-dimethyl-1H-pyrazol-1-yl)phenyl]-3-methyl-5-(quinoxalin-2-ylamino)-1,2-thiazole-4-carboxamide]"
11,< 4.70,"CNS(=O)(=O)c1ccc(NC(=O)c2c(C)nsc2Nc2cnc(C(F)(F)F)cn2)cc1 [Example 212, 3-methyl-N-[4-(methylsulfamoyl)phenyl]-5-{[5-(trifluoromethyl)pyrazin-2-yl]amino}-1,2-thiazole-4-carboxamide]"
12,< 4.70,"CCN(CC)CCNC(=O)c1cccc(NC(=O)c2c(C)nsc2Nc2cnccn2)c1 [Example 247, N-(3-{[2-(diethylamino)ethyl]carbamoyl}phenyl)-3-methyl-5-(pyrazin-2-ylamino)-1,2-thiazole-4-carboxamide]"
13,< 4.70 and 4.72,"Cc1nsc(Nc2cnc3ccccc3n2)c1C(=O)Nc1ccc(Nc2ccc(F)c(F)c2)nc1 [Example 245, N-{6-[(3,4-difluorophenyl)amino]pyridin-3-yl}-3-methyl-5-(quinoxalin-2-ylamino)-1,2-thiazole-4-carboxamide]"
14,< 4.70,"Cc1nsc(Nc2ccc(C#N)cn2)c1C(=O)Nc1ccc(F)c(C(N)=O)c1 [Example 203, N-(3-carbamoyl-4-fluorophenyl)-5-[(5-cyanopyridin-2-yl)amino]-3-methyl-1,2-thiazole-4-carboxamide]"
15,< 4.70,"Cc1nsc(Nc2cnc3ccccc3n2)c1C(=O)Nc1ccc(NC2CCCN(C(=O)OC(C)(C)C)C2)nc1 (centres unmarked) [Example 241, tert-butyl 3-{[5-({[3-methyl-5-(quinoxalin-2-ylamino)-1,2-thiazol-4-yl]carbonyl}amino)pyridin-2-yl]amino}piperidine-1-carboxylate]"
16,< 4.70,"Cc1nsc(Nc2cncc(C(F)(F)F)n2)c1C(=O)Nc1ccc(OCC2CCN(C(=O)OC(C)(C)C)CC2)nc1 [Example 226, tert-butyl 4-{[(5-{[(3-methyl-5-{[6-(trifluoromethyl)pyrazin-2-yl]amino}-1,2-thiazol-4-yl)carbonyl]amino}pyridin-2-yl)oxy]methyl}piperidine-1-carboxylate]"
